Data reported in patent publication US20120309699A1, “COMPOUNDS HAVING ANTI-INFLAMMATORY ACTIVITY” (Consejo Superior de Investigaciones Cientificas (CSIC), priority 2009, published 2012).
“Also recorded” adds a separate entry of the source.

How the values were obtained:
C57BL/6 mice = experiment: DSS (sodium dextran sulfate) model for intestinal inflammation: colon length, weight, DAI, appearance, colonic architecture; type: in vivo; conditions: after 1% DSS for 8 days; HED 10 mg
Experimental: (§1) A model for intestinal inflammation based on the administration of DSS (sodium dextran sulfate) to C57BL/6 mice was used. At the present time there is no consensus about which overall is the best model for experimental colitis. The DSS model has been widely used because it has clinical, morphological and analytical characteristics which up to a point are similar to those specific to patients with ulcerative colitis or Crohn's disease.
(§2) The in vivo inflammation test was carried out using duplicates separated by a number of months. In each test each group of animals (n=8) was fed a standard diet supplemented with 2.3 mg/day/kg (animal weight) of each of the compounds, depending upon the group. This dose assumes the ingestion of 0.05 mg/day (50 μg/day) per mouse (having a mean weight of 22 grams). This dose extrapolated to a human being is equivalent to 10 mg in an adult weighing 70 kg; using the formula HED (human equivalent dose)=animal dose in mg/kg×(animal weight kg/human weight in kg)^0.33.
(§3) In each test the mice were fed for 3 weeks during which 1% DSS was included in their drink. The DSS was maintained for 8 days (and the same food as from the start). Then the DSS was withdrawn and the animals were allowed to recover for another 6 days (again with the same food).
Groups included in the investigation: control (standard food), control-DSS, DSS-resveratrol (RES), DSS-piceid (PIC), DSS-resveratrol-diglucoside (DIGLUC), DSS-piceid-butyrate (BUT), DSS-piceid-octanoate (OCT).
• Monitoring of weight, food and drink ingestion. The mice in all groups were individually monitored, with weight, quantity of food ingested and water drunk each day being monitored throughout the experimental test. • Blood and water in feces. The water content of feces, as an indication of diarrhea, was evaluated using the difference in weight following evaporation in a stove. Blood was measured using reactive strips based on the guaiacol-peroxidase reaction (HealthCare Diagnosis Inc.). The samples were diluted 1:50 in saline solution and applied to the reactive strips. After 60 sec the color was compared with the template provided by the manufacturer. The reaction was measured using a scale from 0 (negative result) to 4 (most intense color change). • Length of colon. After sacrifice the colon was obtained from each mouse, extended and measured. Samples of the colonic mucosa for various tests mentioned below were obtained by scraping. • Myeloperoxidase activity in colonic mucosa. This was evaluated by spectrophotometry at 460 nm using O-dianisidine reagent and hydrogen peroxide. The change in absorbance at 460 nm was monitored over 10 minutes in a V-630 spectrophotometer (Jasco, Tokyo, Japan). MPO activity was expressed as mU of activity/mg of fresh tissue, comparing the increase in absorbance with a standard straight line obtained using leukocyte myeloperoxidase (Sigma). • Prostaglandins in colonic mucosa. Levels of PGE2 were measured in colonic mucosa homogenates using an immunoenzyme method using a Cayman Chem. kit (USA). • “Antibody array”. The “antibody array” kit from RayBiotech (“RayBio Mouse Inflammation Antibody Array 1”) was used to determine cytokines in colonic tissue samples. The “RayBio Mouse inflammation antibody arrays” are a fast and accurate system for determining the expression profile of multiple cytokines (in this case 40) in a very sensitive way. The sensitivity is 100 times greater than that of the ELISA method. The measurement was made in duplicate following the manufacturer's instructions. Membranes were blocked with blocking buffer and then incubated with 300 μg of protein for 2 hours. Finally the membranes were incubated with a cocktail of antibodies conjugated with biotin and then radish peroxidase marked with streptavidin. The signal was detected by chemoluminescence. Images were captured using a CCD camera fitted to a Biorad Chemidoc XRS imaging station. Signal intensities (densitometry) were analyzed using ScanAlyze software. […]

haptoglobin = experiment: Systemic inflammation marker haptoglobin (DSS model); type: in vivo, mice; conditions: vs DSS group; HED 10 mg
Experimental: as §1, §2, §3
(§4) • Monitoring of weight, food and drink ingestion. The mice in all groups were individually monitored, with weight, quantity of food ingested and water drunk each day being monitored throughout the experimental test. • Blood and water in feces. The water content of feces, as an indication of diarrhea, was evaluated using the difference in weight following evaporation in a stove. Blood was measured using reactive strips based on the guaiacol-peroxidase reaction (HealthCare Diagnosis Inc.). […] The reaction was measured using a scale from 0 (negative result) to 4 (most intense color change). • Length of colon. After sacrifice the colon was obtained from each mouse, extended and measured. […] This was evaluated by spectrophotometry at 460 nm using O-dianisidine reagent and hydrogen peroxide. The change in absorbance at 460 nm was monitored over 10 minutes in a V-630 spectrophotometer (Jasco, Tokyo, Japan). MPO activity was expressed as mU of activity/mg of fresh tissue, comparing the increase in absorbance with a standard straight line obtained using leukocyte myeloperoxidase (Sigma). • Prostaglandins in colonic mucosa. Levels of PGE2 were measured in colonic mucosa homogenates using an immunoenzyme method using a Cayman Chem. kit (USA). • “Antibody array”. […] The signal was detected by chemoluminescence. […] Signal intensities (densitometry) were analyzed using ScanAlyze software. […] The changes in cytokine levels were expressed as mean±SD in arbitrary density units. […]

fibrinogen = experiment: Systemic inflammation marker fibrinogen (DSS model); type: in vivo, mice; conditions: vs DSS group; HED 10 mg
Experimental: as §1, §2, §3, §4

bifidobacteria = experiment: Microbiota counts in feces: bifidobacteria; type: in vivo, mice; conditions: HED 10 mg
Experimental: as §1, §2, §3, §4

enterobacteria = experiment: Microbiota counts in feces: enterobacteria; type: in vivo, mice; conditions: after administration of DSS; HED 10 mg
Experimental: as §1
(§5) The in vivo inflammation test was carried out using duplicates separated by a number of months. In each test each group of animals (n=8) was fed a standard diet supplemented with 2.3 mg/day/kg (animal weight) of each of the compounds, depending upon the group. This dose assumes the ingestion of 0.05 mg/day (50 μg/day) per mouse (having a mean weight of 22 grams). This dose extrapolated to a human being is equivalent to 10 mg in an adult weighing 70 kg; using the formula HED (human equivalent dose)=animal dose in mg/kg×(animal weight kg/human weight in kg)^0.33. […]
(§6) • Monitoring of weight, food and drink ingestion. The mice in all groups were individually monitored, with weight, quantity of food ingested and water drunk each day being monitored throughout the experimental test. • Blood and water in feces. The water content of feces, as an indication of diarrhea, was evaluated using the difference in weight following evaporation in a stove. Blood was measured using reactive strips based on the guaiacol-peroxidase reaction (HealthCare Diagnosis Inc.). […] The reaction was measured using a scale from 0 (negative result) to 4 (most intense color change). • Length of colon. After sacrifice the colon was obtained from each mouse, extended and measured. […] This was evaluated by spectrophotometry at 460 nm using O-dianisidine reagent and hydrogen peroxide. The change in absorbance at 460 nm was monitored over 10 minutes in a V-630 spectrophotometer (Jasco, Tokyo, Japan). […] Levels of PGE2 were measured in colonic mucosa homogenates using an immunoenzyme method using a Cayman Chem. kit (USA). • “Antibody array”. […] The signal was detected by chemoluminescence. […]

E. coli = experiment: Microbiota counts in feces: E. coli; type: in vivo, mice; conditions: after administration of DSS; HED 10 mg
Experimental: as §1, §5, §6

[1] = test system: pathogenic bacteria (E. coli O157, Salmonella and Listeria monocytogenes Scott A); experiment: Adhesion of pathogenic bacteria to Caco-2 cell cultures; type: cell-based, human; conditions: Caco-2, 25 μM/well, vs positive control C+
Experimental: (§7) We used two cell models for colon cancer to evaluate the anti-adhesion capacity of compounds derived from resveratrol against pathogenic bacteria in food: Caco-2 (a model frequently used to measure the adhesion of microorganisms) and HT-29 (a model frequently used to measure immune response to infections by enteropathogens). Caco-2 and HT-29 cells were grown in EMEM and DMEM respectively, for which 24 well plates were used at 37° C., 5% CO2, 95% air until a single layer of confluent epithelium formed (cell concentration per well 2×10^5 and 6×10^5 respectively). Pathogenic bacteria (E. coli O157, Salmonella and Listeria monocytogenes Scott A) were placed in contact with the various compounds derived from resveratrol for 1 hour and subsequently the bacteria together with the different compounds in a concentration of 25 μM/well were inoculated on the cell cultures, incubating the plates for 2 hours at 37° C., 5% CO2, 95% air. The plates were then washed 3 times with 1 ml of sterile PBS and 1 ml of distilled water with 20% of glycerol was added, and they were frozen at −70° C. to lyse the epithelial cells. […] Concentrations of the various derivatives tested were detected in the digestive tracts of experimental animals and therefore the test lay within the range of physiologically achievable concentrations.

[2] = test system: pathogenic bacteria (E. coli O157, Salmonella and Listeria monocytogenes Scott A); experiment: Adhesion of pathogenic bacteria to HT-29 cell cultures; type: cell-based, human; conditions: HT-29, 25 μM/well, vs positive control C+
Experimental: as §7

COX-2 = conditions: see ES2266271; cited from earlier work
COX-1 = COX-1 (Homo sapiens, UniProt P23219); conditions: cited from earlier work
[3] = Time of arrival and concentration of resveratrol in the colon of healthy mice; conditions: gastric probang, 84 mg/kg resveratrol

COX-1, sequence (P23219 24-599): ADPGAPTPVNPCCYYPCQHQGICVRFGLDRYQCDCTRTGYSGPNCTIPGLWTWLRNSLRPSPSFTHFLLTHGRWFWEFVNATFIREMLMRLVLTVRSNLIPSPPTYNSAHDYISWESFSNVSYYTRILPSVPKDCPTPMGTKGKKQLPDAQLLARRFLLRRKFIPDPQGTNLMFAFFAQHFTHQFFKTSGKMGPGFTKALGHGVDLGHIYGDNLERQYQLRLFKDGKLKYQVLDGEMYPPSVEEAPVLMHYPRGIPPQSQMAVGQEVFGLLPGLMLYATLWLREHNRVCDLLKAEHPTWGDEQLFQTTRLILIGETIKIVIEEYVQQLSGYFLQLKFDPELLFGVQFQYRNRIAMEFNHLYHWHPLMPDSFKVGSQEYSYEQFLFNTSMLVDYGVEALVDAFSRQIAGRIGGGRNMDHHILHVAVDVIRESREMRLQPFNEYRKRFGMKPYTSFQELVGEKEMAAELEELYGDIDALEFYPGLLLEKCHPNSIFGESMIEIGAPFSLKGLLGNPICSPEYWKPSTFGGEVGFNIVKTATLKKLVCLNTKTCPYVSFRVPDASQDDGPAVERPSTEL

SMILES	General appearance of the mice (C57BL/6 mice)	Blood haptoglobin levels (haptoglobin)	Blood fibrinogen levels (fibrinogen)	Bifidobacteria count in feces (bifidobacteria; after administration of DSS)	Enterobacteria count in feces (enterobacteria)	E. coli count in feces (E. coli)	Adhesion of pathogenic bacteria to the intestinal epithelium [1]	Adhesion of pathogenic bacteria to intestinal epithelium [2]	Transcription of COX-2 (COX-2)	Enzyme activity of COX-1 (COX-1)	Time of maximum resveratrol in the colon [3]	Bifidobacteria count in feces (bifidobacteria; 3 weeks of supplemented diet, prior to DSS)
Oc1ccc(/C=C/c2cc(O)cc(O)c2)cc1 [RES, trans-resveratrol, reference compound]	OCT (D)≈BUT (C)>>RES≈DIGLUC≈PIC (B)>>control-DSS (A); also recorded: better appearance than the control-DSS	clear tendency to improvement	clear tendency to improvement	slightly higher counts	clear reduction	clear reduction	reduced the adhesion	reduced the adhesion	inhibits the transcription of COX-2	inhibits the enzyme activity of COX-1	around 5 hours	–
OC[C@H]1O[C@@H](Oc2cc(O)cc(/C=C/c3ccc(O)cc3)c2)[C@H](O)[C@@H](O)[C@@H]1O [PIC, resveratrol-3-O-glucoside, reference compound]	OCT (D)≈BUT (C)>>RES≈DIGLUC≈PIC (B)>>control-DSS (A)	–	–	–	–	–	–	–	–	–	–	–
OC[C@H]1O[C@@H](Oc2cc(/C=C/c3ccc(O)cc3)cc(O[C@@H]3O[C@H](CO)[C@@H](O)[C@H](O)[C@H]3O)c2)[C@H](O)[C@@H](O)[C@@H]1O [DIGLUC, trans-resveratrol-3,5-di-O-β-D-glucopyranoside]	OCT (D)≈BUT (C)>>RES≈DIGLUC≈PIC (B)>>control-DSS (A)	clear tendency to improvement	most notable differences	–	–	–	–	–	–	–	–	highest count
